Test results: US20170266284A1, “PERSONALIZED METHODS FOR TREATING DISEASE BY RADIOSENSITIZATION” (Shuttle Pharmaceuticals, LLC, priority 2014, published 2017)
Where “and” joins values, the source holds several entries; their conditions need not be identical. Identical values can stand only once.

What was measured:
[1] = tested on: clinical Stage 2 and 3 rectal cancers; details: cited from earlier work; for patients achieving tumor (T stage) downstaging: pre-operative chemoradiation, continuous infusion 5-FU or twice daily capecitabine
cells = details: compared to cells without the defective DNA; cited from earlier work
[2] = multiple daily oral IPdR dosing, pre-clinical; cited from earlier work
[3] = tested on: proliferating normal tissues (bone marrow and intestine); details: daily oral IPdR compared to continuous infusion IUdR; cited from earlier work
[4] = tested on: locally advanced rectal cancer; assay: Concomitant daily oral capecitabine and oral IPdR during radiation therapy (proposed); format: in vivo, human; details: oral IPdR with oral capecitabine during radiation therapy; expected ("may")
Method: This may, in turn, correlate with increased survival and improved quality of life for these patients. By establishing the MTD and documenting the plasma PK data for once daily oral administration of IPdR combined with fractionated radiation therapy (37.5 Gy @ 2.5 Gy fractions over 3 weeks), the daily (or twice daily) IPdR dose may be reduced by two dose levels, while using standard doses of capecitabine (750 mg/M^2) and radiation therapy (50.4-54 Gy @ 1.8 Gy fractions).

[5] = tested on: subcutaneous xenografts of human glioblastoma cell lines and human colorectal cancer cell lines; details: daily oral IPdR compared to continuous infusion IUdR; cited from earlier work
High Grade Sarcomas = assay: IUdR as radiosensitizer with RT in patients with high grade sarcomas, vs historical controls; format: in vivo, human

## O=c1[nH]cc(F)c(=O)[nH]1 [5-FU, 5-fluorouracil]
[1]
  patients achieving tumor (T stage) downstaging: about 45%

## O=c1[nH]c(=O)n([C@H]2C[C@H](O)[C@@H](CO)O2)cc1Br [BUdR, 5-bromo-2′-deoxyuridine]
cells
  cells more susceptible to the lethal effects of radiation therapy: two to three fold

## O=c1ncc(I)cn1[C@H]1C[C@H](O)[C@@H](CO)O1 [IPdR, 5-iodo-2-pyrimidinone-2′-deoxyribose]
[2]
  acute and subacute normal tissue toxicities: without significant dose-limiting acute and subacute normal tissue toxicities
[3]
  decreased % IUdR-DNA incorporation into proliferating normal tissues (bone marrow and intestine / gut epithelium): 2-3 fold and 2 fold
[4]
  pCR rate: > 30%
[5]
  increased % IUdR-DNA incorporation into tumor tissues: 2-3 fold

## O=c1[nH]c(=O)n([C@H]2C[C@H](O)[C@@H](CO)O2)cc1I [IUdR, 5-iodo-2′-deoxyuridine]
High Grade Sarcomas; RT + IUdR + Surgery, High Grade Sarcomas (Resectable), RT + Surgery 25%
  Median Survival (Months): 45%
High Grade Sarcomas; RT + IUdR, High Grade Sarcomas (Un-Resectable), RT alone <10%
  Median Survival (Months): 60%
cells
  cells more susceptible to the lethal effects of radiation therapy: two to three fold

## CCCCCOC(=O)Nc1nc(=O)n([C@@H]2O[C@H](C)[C@@H](O)[C@H]2O)cc1F [capecitabine]
[1]; capecitabine administered twice daily
  pCR, local recurrence, and overall survival, comparison with infusional 5-FU: equivalent to infusional 5-FU
[1]
  patients achieving tumor (T stage) downstaging: about 45%
